From patent US20220288048A1, “PIMAVANSERIN FOR TREATING SCHIZOPHRENIA OR FOR TREATING PSYCHOSIS SECONDARY TO NEURODEGENERATIVE DISORDERS OR DEPRESSIVE DISORDER” (ACADIA Pharmaceuticals Inc., priority 2019, published 2022)

System: adult schizophrenia patients with a persistent inadequate response to their existing antipsychotic therapy
Assay: 6-week study of pimavanserin or placebo added to existing antipsychotic treatment: efficacy rating scales
Type: in vivo, human
Procedure: The effect of pimavanserin as an adjunctive treatment in adult schizophrenia patients with a persistent inadequate response (i.e., partial responders) to their existing antipsychotic therapy was tested. 396 patients with moderate-to-severe psychotic symptoms were randomized to receive either pimavanserin or placebo added to existing antipsychotic treatment. […] Dosages of background oral antipsychotics could not be changed within four weeks of screening and dosages of long-acting injectables (LAI) could not be changed within 16 weeks of screening. […] Patients were administered a daily dose of pimavanserin or a placebo for six weeks. The dose started at 20 mg and could be adjusted to 34 mg or 10 mg between weeks 1 and 3. The majority of patients (56%) completed the study at the highest dose level. Patients were evaluated at baseline and on a weekly basis according to the clinical rating scale Positive and Negative Symptom Scale (PANSS). The PANSS is a 30-item, 7-point rating system that was developed to cover a range of negative symptoms not adequately measured by the Brief Psychiatric Rating Scale. It has sections that specifically measure positive symptoms, negative symptoms, and general psychopathology in schizophrenic subjects. The PANSS is widely used in trials of antipsychotic drug treatment, and has been formally validated for such use. A subset of 5 of the PANSS factors, the […] factors, were also evaluated. Other clinical rating scales that were assessed were the Clinical Global Impression Scale (CGI), Personal and Social Performance Scale (PSP), drug attitude inventory (DAI-10), Karolinska Sleepiness Scale (KSS), Calgary Depression Scale for Schizophrenia (CDSS), 36-item Short Form Physical Health evaluation ([…]) and 36-item Short Form Mental Health evaluation […].

[1] = FAS population, W6, Missing as non-Rsp
[2] = Full Analysis Set, OC, Week 6, listed as PIM
[3] = Full Analysis Set, added to existing antipsychotic
[4] = Sensitivity: MI in FAS, ANCOVA, W6
[5] = Sensitivity: MI in RAND, ANCOVA, W6
[6] = Sensitivity: OC in PP, MMRM, W6

`CC(C)COc1ccc(CNC(=O)N(Cc2ccc(F)cc2)C2CCN(C)CC2)cc1` [Pimavanserin, N-(4-Fluorophenylmethyl)-N-(1-methylpiperidin-4-yl)-N′-(4-(2-methylpropyloxy)phenylmethyl)carbamide] was tested, and the “CGI-I 1 or 2 Rsp, (%)” value [1] was “(35.2) %”, the “CGI-I 1 or 2 Rsp, Diff in % (PIM − PBO)” value [1] was 2.1% and the “PANSS >= 20% Rsp, (%)” value [1] was “(56.5) %”. The “PANSS >= 20% Rsp, Diff in % (PIM − PBO)” value [1] was 5.9%, the “PANSS >= 30% Rsp, (%)” value [1] was “(36.8) %” and the “PANSS >= 30% Rsp, Diff in % (PIM − PBO)” value [1] was 2.6%. The “CGI-I 1 or 2 Rsp, (%)” value (FAS population, W6, OC) was “(39.3) %”, the “CGI-I 1 or 2 Rsp, Diff in % (PIM − PBO)” value (FAS population, W6, OC) was 4.9% and the “CGI-I no Chg or Worsened, (%)” value (FAS population, W6, OC) was “(27.2) %”. The “CGI-I no Chg or Worsened, Diff in % (PIM − PBO)” value (FAS population, W6, OC) was −0.9%, the “PANSS >= 20% Rsp, (%)” value (FAS population, W6, OC) was “(63.0) %” and the “PANSS >= 20% Rsp, Diff in % (PIM − PBO)” value (FAS population, W6, OC) was 10.6%. For the same molecule, the “PANSS >= 30% Rsp, (%)” value (FAS population, W6, OC) was “(41.0) %”, the “PANSS >= 30% Rsp, Diff in % (PIM − PBO)” value (FAS population, W6, OC) was 5.6% and the “CGI-S score, Change from Baseline to Week 6, Mean (SE)” value (Full Analysis Set) was −0.8 (0.06). The “PANSS Marder negative factor score, Change from Baseline to Week 6, Mean (SE)” value (Full Analysis Set) was −3.3 (0.31), the “PANSS Marder negative factor score, Week 6, Mean (SE)” value (Full Analysis Set) was 19.2 (0.38) and the “PANSS negative symptoms scale sub-score, Change from Baseline to Week 6, Mean (SE)” value (Full Analysis Set) was −2.8 (0.28). The “PANSS negative symptoms scale sub-score, Week 6, Mean (SE)” value (Full Analysis Set) was 20.3 (0.35), the “CGI-S score, Diff in MMRM LSM (SE), pimavanserin − placebo” value (Full Analysis Set, OC, Week 6) was −0.1 (0.08) and the “CGI-S score, Effect Size (Cohen's d)” value (Full Analysis Set, OC, Week 6) was 0.200. The “PANSS Marder negative factor score, Diff in MMRM LSM (SE), pimavanserin − placebo” value (Full Analysis Set, OC, Week 6) was −0.9 (0.41), the “PANSS Marder negative factor score, Effect Size (Cohen's d)” value (Full Analysis Set, OC, Week 6) was 0.218 and the “PANSS negative symptoms scale sub-score, Diff in MMRM LSM (SE), pimavanserin − placebo” value (Full Analysis Set, OC, Week 6) was −0.7 (0.37). For the same molecule, the “PANSS negative symptoms scale sub-score, Effect Size (Cohen's d)” value (Full Analysis Set, OC, Week 6) was 0.206, the “PANSS total score, Diff in MMRM LSM (SE), pimavanserin − placebo” value (Full Analysis Set, OC, Week 6) was −2.1 (1.24) and the “PANSS total score, Effect Size (Cohen's d)” value (Full Analysis Set, OC, Week 6) was 0.173. The “CGI-S score, Diff in MMRM LSM (SE), pimavanserin − placebo” value [2] was −0.1, the “CGI-S score, Effect Size (Cohen's d)” value [2] was 0.20 and the “PANSS Marder negative factor score, Diff in MMRM LSM (SE), pimavanserin − placebo” value [2] was −0.9. The “PANSS Marder negative factor score, Effect Size (Cohen's d)” value [2] was 0.22, the “PANSS negative symptoms scale sub-score, Diff in MMRM LSM (SE), pimavanserin − placebo” value [2] was −0.7 and the “PANSS negative symptoms scale sub-score, Effect Size (Cohen's d)” value [2] was 0.21. For the same molecule, the “PANSS total score, Diff in MMRM LSM (SE), pimavanserin − placebo” value [2] was −2.1, the “PANSS total score, Effect Size (Cohen's d)” value [2] was 0.17 and the “CGI-S score, Week 6, Mean (SE)” value [3] was 3.8 (0.07). The “PANSS total score, Change from Baseline to Week 6, Mean (SE)” value [3] was −15.3 (0.93), the “PANSS total score, Week 6, Mean (SE)” value [3] was 72.7 (1.04) and the “Positive or negative symptoms, difference between treatment groups” value (North America) was “No significant differences”. The “Clinical Global Impressions-Severity, LS Mean Change at Week 6” value (North America subgroup) was −0.7, the “PANSS Total Score, LS Mean Change at Week 6” value (North America subgroup) was −14.2 and the “Clinical Global Impressions-Severity, Cohen's d Effect Size” value (North America subgroup, Week 6) was −0.144. For the same molecule, the “Clinical Global Impressions-Severity, LS Mean (SE) Difference” value (North America subgroup, Week 6) was 0.1 (0.15), the “PANSS Total Score, Cohen's d Effect Size” value (North America subgroup, Week 6) was −0.229 and the “PANSS Total Score, LS Mean (SE) Difference” value (North America subgroup, Week 6) was 2.6 (2.74). For the same molecule, the “PANSS Total, LSM Change from Baseline at W6” value (“PANSS Total, LSM Change” for short) (Sensitivity: MI in FAS, ANCOVA) was −15.3, the “PANSS Total, Effect Size” value [4] was 0.16 and the “PANSS Total, Treatment group Comparison (PIM-PBO) LSM” value (shortened to “PANSS Total … (PIM-PBO) LSM”) [4] was −1.9. For the same molecule, the “PANSS Total, LSM Change” value (Sensitivity: MI in RAND, ANCOVA) was −15.2, the “PANSS Total, Effect Size” value [5] was 0.15 and the “PANSS Total … (PIM-PBO) LSM” value [5] was −1.9. The “PANSS Total, LSM Change” value (Sensitivity: OC ANCOVA) was −15.3, the “PANSS Total, Effect Size” value (Sensitivity: OC ANCOVA, W6) was 0.16 and the “PANSS Total … (PIM-PBO) LSM” value (Sensitivity: OC ANCOVA, W6) was −1.9. The “PANSS Total, LSM Change” value (Sensitivity: OC in PP, MMRM) was −15.6, the “PANSS Total, Effect Size” value [6] was 0.19 and the “PANSS Total … (PIM-PBO) LSM” value [6] was −2.3.
